Assay [1] has as its target T1, Cholesteryl ester transfer protein (Homo sapiens, UniProt P11597).
T1 sequence (P11597 whole entry): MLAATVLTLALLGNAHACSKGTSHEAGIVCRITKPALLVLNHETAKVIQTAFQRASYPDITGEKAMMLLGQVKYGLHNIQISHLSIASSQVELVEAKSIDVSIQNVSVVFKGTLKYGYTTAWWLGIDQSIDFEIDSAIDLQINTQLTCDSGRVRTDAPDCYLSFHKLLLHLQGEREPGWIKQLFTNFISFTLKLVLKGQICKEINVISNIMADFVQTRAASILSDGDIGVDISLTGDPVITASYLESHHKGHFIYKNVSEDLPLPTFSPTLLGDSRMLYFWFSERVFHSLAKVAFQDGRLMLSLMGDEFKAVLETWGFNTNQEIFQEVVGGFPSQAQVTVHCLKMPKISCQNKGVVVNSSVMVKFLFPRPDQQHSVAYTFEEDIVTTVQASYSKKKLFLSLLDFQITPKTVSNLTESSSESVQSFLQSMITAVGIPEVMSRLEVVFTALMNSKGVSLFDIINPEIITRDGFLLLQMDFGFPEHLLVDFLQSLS
The assay can be described thus: Inhibition of CETP-mediated neutral lipid transfer by fluorometric analysis.

Assay [2] has as its system Mus musculus. The assay can be described thus: Cardioprotective activity in transgenic B6 mouse expressing cynomolgus monkey CETP assessed as increase in HDL-cholesterol level at 30 mg/kg, po BID measured after 24 hrs of first dose. In kind it is functional.
Assay [3] deals with Mus musculus. The assay can be described thus: Cardioprotective activity in transgenic B6 mouse expressing cynomolgus monkey CETP assessed as increase in HDL-cholesterol level at 10 mg/kg, po BID measured after 24 hrs of first dose. In kind it is functional.
The subject of assay [4] is Mus musculus. The assay can be described thus: Cardioprotective activity in po dosed transgenic B6 mouse expressing cynomolgus monkey CETP assessed as increase in HDL-cholesterol level administered BID measured after 24 hrs of first dose. It counts as functional, organism-based.
In assay [5] the test system is Mus musculus. The assay can be described thus: Cardioprotective activity in transgenic B6 mouse expressing cynomolgus monkey CETP assessed as increase in HDL-cholesterol level at 3 mg/kg, po BID measured after 24 hrs of first dose. In kind it is functional.
In assay [6] the test system is Mus musculus. The assay can be described thus: Cardioprotective activity in transgenic B6 mouse expressing cynomolgus monkey CETP assessed as increase in HDL-cholesterol level at 1 mg/kg, po BID measured after 24 hrs of first dose. In kind it is functional.
The test system of assay [7] is Mus musculus. The assay can be described thus: Cardioprotective activity in transgenic B6 mouse expressing cynomolgus monkey CETP assessed as increase in HDL-cholesterol level at 100 mg/kg, po BID measured after 24 hrs of first dose. In kind it is functional.

The term IC50 denotes the midpoint of a concentration-inhibition curve. Consider `COC(=O)N(Cc1cc(C(F)(F)F)cc(C(F)(F)F)c1)Cc1cc([N+](=O)[O-])ccc1-c1cc(C(C)C)ccc1OC`, for which the IC50 in assay [1] was determined as 134 nM.

The compound `COC(=O)N(Cc1cc(C(F)(F)F)cc(C(F)(F)F)c1)Cc1cc(C(F)(F)F)ccc1-c1cc(C(C)C)c(F)cc1OC` came in with an IC50 in assay [1] of 117 nM.

Turning to `COC(=O)N(Cc1cc(C(F)(F)F)cc(C(F)(F)F)c1)Cc1cc(C(F)(F)F)ccc1-c1cc(C(C)C)ccc1OC`, the Activity was 86% in assay [2]; 54% in assay [3]; “Dose-dependent effect” in assay [4]; 43% in assay [5]; 37% in assay [6]. In assay [1], this compound had an IC50 of 108 nM. Turning to `CCc1ccc(OC)c(-c2ccc(C(F)(F)F)cc2CN(Cc2cc(C(F)(F)F)cc(C(F)(F)F)c2)C(=O)OC)c1`, in assay [1], the concentration for half-maximal inhibition (IC50) came to 210 nM. The compound `COC(=O)N(Cc1cc(C(F)(F)F)cc(C(F)(F)F)c1)Cc1cc(OC)ccc1-c1cc(C(C)C)ccc1OC` gave an IC50 in assay [1] of 694 nM. Same read-out and setting: the result for `COC(=O)N(Cc1cc(C(F)(F)F)cc(C(F)(F)F)c1)Cc1cc(C#N)ccc1-c1cc(C(C)C)ccc1OC` reads 224 nM; that for `COC(=O)N(Cc1cc(C(F)(F)F)cc(C(F)(F)F)c1)Cc1cc(Cl)ccc1-c1cc(C(C)C)ccc1OC`, 1430 nM; that for `COC(=O)N(Cc1cc(C(F)(F)F)cc(C(F)(F)F)c1)Cc1cc(C(F)(F)F)ccc1-c1cc(OC)ccc1OC`, 444 nM. `CCOc1ccc(C)cc1-c1ccc(C(F)(F)F)cc1CN(Cc1cc(C(F)(F)F)cc(C(F)(F)F)c1)C(=O)OC` came in with a half-inhibitory concentration (IC50) in assay [1] of 4490 nM.

Turning to `COC(=O)N(Cc1cc(C(F)(F)F)cc(C(F)(F)F)c1)Cc1cc(C(F)(F)F)ccc1-c1ccccc1OC`, half-maximal inhibition in assay [1] (IC50) required 1600 nM.

Take `COC(=O)N(Cc1cc(C(F)(F)F)cc(C(F)(F)F)c1)Cc1cc(I)ccc1-c1cc(C(C)C)ccc1OC`: in assay [1], half-maximal inhibition (IC50) required 365 nM. The compound `COC(=O)N(Cc1cc(C(F)(F)F)cc(C(F)(F)F)c1)Cc1cc(C(C)(C)C)ccc1-c1cc(C(C)C)ccc1OC` registered a half-inhibitory concentration (IC50) in assay [1] of 9510 nM. On the same count and under the same terms, the result for `COC(=O)N(Cc1cc(C(F)(F)F)cc(C(F)(F)F)c1)Cc1ccccc1-c1cc(C(C)C)ccc1OC` reads 3830 nM. Turning to `CCCc1ccc(OC)c(-c2ccc(C(F)(F)F)cc2CN(Cc2cc(C(F)(F)F)cc(C(F)(F)F)c2)C(=O)OC)c1`, in assay [1], the IC50 worked out at 753 nM. Still for that read-out and setting: the result for `COC(=O)N(Cc1cc(C(F)(F)F)cc(C(F)(F)F)c1)Cc1cc(N)ccc1-c1cc(C(C)C)ccc1OC` reads 4660 nM; that for `COC(=O)N(Cc1cc(C(F)(F)F)cc(C(F)(F)F)c1)Cc1cc(F)ccc1-c1cc(C(C)C)ccc1OC`, 1730 nM. `COC(=O)N(Cc1cc(C(F)(F)F)cc(C(F)(F)F)c1)Cc1cc(C(F)(F)F)ccc1-c1cc(C(C)(C)C)ccc1OC`: the IC50 in assay [1] was 2590 nM. Regarding `COC(=O)N(Cc1cc(C(F)(F)F)cc(C(F)(F)F)c1)Cc1cc(C(F)(F)F)ccc1-c1cc(C)ccc1OC`, it took 469 nM to reach half-maximal inhibition in assay [1] (IC50). The Activity in assay [7] was 40%.

The values are drawn from ChEMBL document CHEMBL1287736, “Design of a novel class of biphenyl CETP inhibitors” (Bioorg Med Chem Lett, 2010).
